Consider four compounds from patent US8680102B2, “Pyrrole derivatives, their preparation and their therapeutic application” (Sanofi, priority 2008, dated 2014).

Each structure is given as a SMILES string.

The target in data set [1] is T1, CB1 receptors present at the periphery (Mus musculus, UniProt P47746).
T1 construct: from tissue; host or cells: whole mouse, in vivo (peripheral / gastrointestinal CB1)
In words: blocking of the inhibitory effect of CP55940 on the gastrointestinal transit. Type of data set: in vivo. To be noted: po route at 10 mg/kg, mice. Here is the method: A percentage reversion of the effect of CP55940 greater than 50% at 10 mg/kg indicates a significant antagonist power at the level of the CB1 receptors present at the periphery.

The target of data set [2] is T2, CB1 receptors present in the brain (Mus musculus, UniProt P47746). In words: Measurement (3): blocking of the hypothermic effect induced by CP55940. Set-up: from tissue; host or cells: whole animal, in vivo (brain CB1). Type of data set: in vivo. Conditions: iv route at 10 mg/kg.
The target in data set [3] is T2, CB1 receptors present in the brain. In words: Measurement (2): ex vivo test of binding of [3H]-CP55940 in the brain. The arrangement: the CB1 receptors present in the brain in mice; from tissue; host or cells: mouse brain, after intravenous administration. To be noted: iv route at 10 mg/kg, mice.
Data set [4] is described as follows: Measurement (1): quantification of compound in brain and plasma by LC-MS/MS. To be noted: iv route at 3 mg/kg, mouse, read-out: Ratio: Quantity present in the brain / Quantity present in the plasma. Type of data set: in vivo.

T1 sequence (P47746 whole entry): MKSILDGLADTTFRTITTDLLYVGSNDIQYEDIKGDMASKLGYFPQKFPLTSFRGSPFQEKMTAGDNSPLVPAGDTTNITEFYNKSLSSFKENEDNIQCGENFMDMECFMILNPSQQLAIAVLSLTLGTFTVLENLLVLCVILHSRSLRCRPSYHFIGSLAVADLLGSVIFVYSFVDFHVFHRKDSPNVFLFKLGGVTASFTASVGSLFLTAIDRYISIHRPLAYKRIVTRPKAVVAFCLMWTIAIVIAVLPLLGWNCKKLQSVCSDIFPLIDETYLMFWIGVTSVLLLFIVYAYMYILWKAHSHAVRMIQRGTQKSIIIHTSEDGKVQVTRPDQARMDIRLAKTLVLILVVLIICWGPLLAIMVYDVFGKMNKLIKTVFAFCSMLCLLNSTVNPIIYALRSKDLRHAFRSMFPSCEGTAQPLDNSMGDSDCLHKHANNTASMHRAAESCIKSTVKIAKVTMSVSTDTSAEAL
T2 sequence (P47746 whole entry): as above

Consider `NC(=O)C1(c2ccccc2)CCN(C(=O)c2cc(-c3ccc(Cl)cc3Cl)n(-c3ccc(Cl)cc3)c2CCCCO)CC1` [compound 13, 1-{[1-(4-chlorophenyl)-5-(2,4-dichlorophenyl)-2-(4-hydroxybutyl)-1H-pyrrol-3-yl]carbonyl}-4-phenylpiperidine-4-carboxamide], for which the “% reversion of the effect of CP55940 on the GIT” value (“% reversion … on the GIT” for short) in data set [1] was found to be 100%. Moreover, the “% reversion of the hypothermic effect of CP55940” value in data set [2] worked out at 58%. In addition, 10 mg/kg produced 5% inhibition in data set [3].

For the compound `NC(=O)C1(c2ccccc2)CCN(C(=O)c2cc(-c3ccc(Cl)cc3Cl)n(-c3ccc(Cl)cc3)c2CCO)CC1` [compound 14, 1-{[1-(4-chlorophenyl)-5-(2,4-dichlorophenyl)-2-(2-hydroxyethyl)-1H-pyrrol-3-yl]carbonyl}-4-phenylpiperidine-4-carboxamide], the “% reversion … on the GIT” value in data set [1] stood at 85%. For the same compound, the “% reversion of the hypothermic effect of CP55940” value in data set [2] is reported as 60%. For the same compound, testing at 10 mg/kg in data set [3] gave an inhibition of 27%.

`NC(=O)C1(N2CCC(F)(F)CC2)CCN(C(=O)c2cc(-c3ccc(Cl)cc3Cl)n(-c3ccc(Cl)cc3)c2CCCCO)CC1` [compound 17, 1′-{[1-(4-chlorophenyl)-5-(2,4-dichlorophenyl)-2-(4-hydroxybutyl)-1H-pyrrol-3-yl]carbonyl}-4,4-difluoro-1,4′-bipiperidine-4′-carboxamide]: in data set [1], the “% reversion … on the GIT” value came out at 97%. Also, the “% reversion of the hypothermic effect of CP55940” value in data set [2] is 60%. In data set [3], 10 mg/kg produced 23% inhibition.

For `NC(=O)C1(c2ccc(Cl)cc2)CCN(C(=O)c2cc(-c3ccc(Cl)cc3Cl)n(-c3ccc(Cl)cc3)c2CCCO)CC1` [compound 30, 4-(4-chlorophenyl)-1-{[1-(4-chlorophenyl)-5-(2,4-dichlorophenyl)-2-(3-hydroxypropyl)-1H-pyrrol-3-yl]carbonyl}piperidine-4-carboxamide], the Kp in data set [4] is 0.06. Besides, the “% reversion … on the GIT” value in data set [1] is on record as 74%. Moreover, in data set [2], the “% reversion of the hypothermic effect of CP55940” value is reported as 32%. Moreover, the inhibition – broadly, the share of the control response that was lost under treatment – at 10 mg/kg in data set [3] worked out at 21%.
